Experimental data: article PMC7235904, “Is Blood a Good Indicator for Detecting Antimicrobials in Meat? Evidence for the Development of In Vivo Surveillance Methods” (Antibiotics, 2020)
Where two headings read alike, the source gives them in different places. Marks after values point to notes of the source that are not given here.

Columns and labels:
[1] = Antimicrobial residue concentration and depletion in muscle of treated pigs within the withdrawal period (LC-MS/MS or HPLC-FLD); assay type: in vivo; details: for concentration at 2 day of withdrawal period: withdrawal period Day 2, pig; for concentration at 3 day of withdrawal period: withdrawal period Day 3, pig
Source text: To obtain samples containing antimicrobial compounds administered in vivo, 93 piglets (62 female, 31 male) with an average weight of 43.00 ± 12.79 kg were provided at treatment onset. These piglets were untreated animals that remained on the premises of the Faculty of Veterinary Sciences at the University of Zaragoza (Zaragoza, Spain) 40 days before administration of the compounds. Both during the acclimatization and withdrawal periods, animals were fed ad libitum with a special mixed feed that was free of antibiotics ([…], Spain), and water was provided from a separated, controlled water circuit. Piglets were raised in separate pens depending on the antibiotic administrated. After administration, animals were slaughtered at preset intervals within the withdrawal period in order to obtain samples containing different antimicrobial concentrations above and below the MRLs for muscle. Figure S1 indicates the slaughter days and the withdrawal periods set by the manufacturer for each antimicrobial compound administered. Between one and three piglets were slaughtered on the same day post-administration. The day of slaughter was calculated from the first day after the last antimicrobial treatment dose. […] Apart from samples containing antimicrobial compounds administered in vivo, and as a part of the sample bank, 15 of the 93 piglets were slaughtered after the acclimatization period and before treatment onset. Animals were stunned and slaughtered following the guidelines established by European Council Regulation (EC) No. 1099/2009 [39] regarding the protection of animals at the time of slaughter or killing. A penetrative captive bolt gun was used to stun the pigs, positioning it firmly against the skin, in the middle of the forehead, 2 cm above the line of the eyes, aiming towards the tail. This was followed by complete exsanguination carried out by incision in the jugular furrow at the base of the neck to sever all the major blood vessels arising from the heart. The samples obtained from them were used as blank samples for analysis. […] Samples were immediately frozen at -20 °C until analysis. For HPLC-FLD analyses, matrix solid phase dispersion (MSPD) was used. A total of 1.00 ± 0.01 g of tissue was weighed. Internal quality control samples were spiked at this point. […] It was introduced into a 25 mL reservoir and compacted. Clean-up was made with 8 mL of hexane, and quinolones were eluted with 15 mL acetonitrile/methanol (1:1) acidified with acetic acid 1%. […] The extraction procedure for LC-MS/MS determination was based on Chico et al.. […] All samples were spiked with IS at this point, and calibrants and internal quality control samples were prepared by spiking the corresponding amount of standard working solution. A total of 200 μL of 0.1 M EDTA was added, followed by 10 mL of 70% methanol, and samples were vortexed for 30 s, swung for 15 min, and finally centrifuged at 4500 rcf for 10 min at a temperature below 10 °C (Heraeus Multifuge X3 FR, Heraeus, Hanau, Germany). Then, 500 μL of supernatant was collected and diluted by adding 1500 μL of water. Extracts were filtered through 0.2 μm pore filters directly into LC-MS/MS vials. […] Mobile phase consisted of eluent A: phosphoric acid with trimethylamine buffer (pH = 3), and eluent B: acetonitrile, in isocratic mode (21:79) with a flow rate of 1 mL/min. Injected volume was 50 μL. […] The same mobile phase and gradient conditions as in SCIEX instruments were applied. Injected volume was 10 μL. Two ESI+ MRM transitions were monitored for each compound (Table S5). […] Results were represented as the mean ± standard deviation using the PRISM program (GraphPad Software, Inc., San Diego, USA). The rates of elimination (λz) of antibiotics from muscle and blood were determined by regression analysis. […]

[2] = Antimicrobial residue concentration and depletion in blood (serum) of treated pigs within the withdrawal period (LC-MS/MS); assay type: in vivo
Source text: To obtain samples containing antimicrobial compounds administered in vivo, 93 piglets (62 female, 31 male) with an average weight of 43.00 ± 12.79 kg were provided at treatment onset. These piglets were untreated animals that remained on the premises of the Faculty of Veterinary Sciences at the University of Zaragoza (Zaragoza, Spain) 40 days before administration of the compounds. Both during the acclimatization and withdrawal periods, animals were fed ad libitum with a special mixed feed that was free of antibiotics ([…], Spain), and water was provided from a separated, controlled water circuit. Piglets were raised in separate pens depending on the antibiotic administrated. After administration, animals were slaughtered at preset intervals within the withdrawal period in order to obtain samples containing different antimicrobial concentrations above and below the MRLs for muscle. Figure S1 indicates the slaughter days and the withdrawal periods set by the manufacturer for each antimicrobial compound administered. Between one and three piglets were slaughtered on the same day post-administration. The day of slaughter was calculated from the first day after the last antimicrobial treatment dose. […] Apart from samples containing antimicrobial compounds administered in vivo, and as a part of the sample bank, 15 of the 93 piglets were slaughtered after the acclimatization period and before treatment onset. Animals were stunned and slaughtered following the guidelines established by European Council Regulation (EC) No. 1099/2009 [39] regarding the protection of animals at the time of slaughter or killing. A penetrative captive bolt gun was used to stun the pigs, positioning it firmly against the skin, in the middle of the forehead, 2 cm above the line of the eyes, aiming towards the tail. This was followed by complete exsanguination carried out by incision in the jugular furrow at the base of the neck to sever all the major blood vessels arising from the heart. The samples obtained from them were used as blank samples for analysis. Blood was collected not only from slaughtered animals, but also from living animals on each day of slaughter. […] For quinolones in blood serum samples, a LC-MS/MS method was set up using a SCIEX Exion LC coupled to TripleQuad 6500+ triple quadrupole detector equipped with an Acquity Ultra Performance Liquid Chromatography Ethylene Bridged Hybrid (UPLC BEH) C18 (1.7 μm, 2.1 × 100 mm) column. Mobile phase consisted of eluent A: 0.1% formic acid in water, and eluent B: 0.1% formic acid in acetonitrile at a flow rate of 0.4 mL/min. […] Injected volume was 5 μL. Analytes were detected using positive electrospray ionization (ESI+) in multiple reaction monitoring (MRM) mode, and two transitions were monitored for each compound of interest (Table S4). […] The same mobile phase and gradient conditions as in SCIEX instruments were applied. […] Two ESI+ MRM transitions were monitored for each compound (Table S5). […] Results were represented as the mean ± standard deviation using the PRISM program (GraphPad Software, Inc., San Diego, USA). The rates of elimination (λz) of antibiotics from muscle and blood were determined by regression analysis. The corresponding half-lives of elimination were calculated according to the following equation: Half-life of elimination.

[3] = forequarter muscle, intramuscular, read-out: Concentration in Forequarters
[4] = hindquarter muscle, intramuscular, read-out: Concentration in Hindquarters
[5] = loin muscle, intramuscular, read-out: Concentration in Loins
[6] = over the sample bank of treated piglets

half-life ([1]; both sexes, intramuscular, pig muscle, T1/2=Ln(2)/λz, read-out: T1/2 half-life of elimination (MUSCLE) (converted)): 13.2 h | concentration at 2 day of withdrawal period [1, 3]: 311 ± 22.6 ng/g | concentration at 3 day of withdrawal period [1, 3]: 43 ng/g | concentration at 2 day of withdrawal period [1, 4]: 351 ± 20.1 ng/g | concentration at 3 day of withdrawal period [1, 4]: 40.5 ± 0.71 ng/g | concentration at 2 day of withdrawal period [1, 5]: 349 ± 16.5 ng/g | concentration at 3 day of withdrawal period [1, 5]: 49.5 ± 0.71 ng/g | Maximum concentration value in Muscle [1, 6]: 1179.67 ± 41.88 µg/kg | Minimum concentration value in Muscle [1, 6]: 14.00 ± 1.41 µg/kg | Slope (MUSCLE) ([1]; pig muscle, regression of concentration over the withdrawal period, deep intramuscular treatment): −0.5494 ± 0.0237 ^a | half-life ([2]; both sexes, intramuscular, pig blood serum, T1/2=Ln(2)/λz, read-out: T1/2 half-life of elimination (BLOOD) (converted)): 13.2 h | Maximum concentration value in Blood [2, 6]: 4098.00 ± 201.34 µg/kg | Minimum concentration value in Blood [2, 6]: 23.67 ± 20.23 µg/kg | Slope (BLOOD) ([2]; pig blood serum, regression of concentration over the withdrawal period, deep intramuscular treatment): −0.5496 ± 0.02589 ^a
Structure (SMILES): COc1ccc(NS(=O)(=O)c2ccc(N)cc2)nn1 [Sulfamethoxypyridazine, sulfamethoxypyridazine]
